Entries after “also recorded” stand apart in the source; their conditions may differ.
Tests used:
Assay type in all cases: cell-based, dog
[1] = test system: right ventricular trabecular preparation; assay: Effect of the substance itself on isometric tension in right ventricular trabecular preparation
Protocol: Aliquots of the 10-30 KD plasma fraction (0.05 to 1 ml) were then added to a right ventricular (RV) trabecular preparation to test for the presence of FCS activity. The RV preparation has previously been described (6,7). Briefly, mongrel dogs (3 to 10 kg) were anesthetized with pentobarbital, and their hearts were removed. Three to four thin trabeculae (<1 mm diameter) were obtained from the right ventricle and were suspended in a vertical constant temperature bath (5 ml) that contained Krebs Henseleit (KH) solution. The muscle was stimulated electrically at 0.5 Hz. Aliquots of plasma fractions (from 0.05 to 1 ml) were added to respective organ baths at 5 minute intervals. The changes observed in the pre and septic plasma fractions were expressed relative to tensions found at baseline (i.e. prior to the addition of the sample). An increase in the depressant activity in the septic plasma fraction relative to that found in the presepsis sample was indicative of an increase in FCS.
The effect of purified Lzm-S on myocardial depression was then studied in the ventricular trabecular preparation. In initial experiments, the objective was to compare Lzm-S prepared from septic and nonseptic spleens to see if there was any difference between the two preparations. Although no differences were apparent by SDS-PAGE gel, different isoforms of the enzyme could have developed in sepsis thereby increasing its potential to cause myocardial depression. Aliquots of the septic and nonseptic preparations were added (at 5 minute intervals) to respective organ baths, and the changes in isometric tension were then compared between Lzm-S obtained from spleens of septic and nonseptic animals.
The right ventricular (RV) preparation used in this study has also been described (49,6). Briefly, mongrel dogs (3 to 10 kg) were anesthetized with pentobarbital. The hearts were removed, flushed with 50 ml of Krebs-Henseleit solution (KH), and placed in ice-cold KH bubbled with a mixture of 95% O2 and 5% CO2. […]
After baseline tension was determined, either the lectin or placebo was placed into respective organ baths. […]

lysozyme c (Lzm-S) [2] = biological target: T1, lysozyme c (Lzm-S) (Canis lupus familiaris, UniProt P81709); assay: Inhibition of Lzm-S's myocardial depressant activity (isometric tension) in right ventricular trabecular preparation; conditions: for Attenuation of the reduction in isometric tension, inhibitor added after Lzm-S: Lzm-S 10^−7M added before the inhibitor; for Isometric tension following pre-treatment with sugar: Lzm-S 10^−7M, sugar 10^−3M added before Lzm-S; for Inhibition of Lzm-S's depressant effect on isometric tension: inhibitor 10^−3M added before Lzm-S, paced 0.5 Hz
T1 construct: Lzm-S was purified in a manner described by Grobler et al (14); from tissue
T1 sequence (P81709 1-130): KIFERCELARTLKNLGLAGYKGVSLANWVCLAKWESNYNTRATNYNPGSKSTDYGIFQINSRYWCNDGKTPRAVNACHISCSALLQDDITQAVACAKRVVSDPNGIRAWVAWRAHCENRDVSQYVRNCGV
Protocol: In subsequent experiments, the objective was to determine whether pretreatment of Lzm-S with the proteolytic enzyme proteinase-K reduced the extent to which myocardial depression developed in the in vitro preparation (7). Proteinase-K (attached to beaded agarose; Sigma Chemical, St Louis, Mo.) was added to the pure Lzm-S preparation. The effects of proteinase-K treated and nontreated Lzm-S on isometric tension were compared between the samples. Since proteinase-K is a non-specific proteolytic enzyme, a specific competitive inhibitor of lysozyme, TAC (chitotriose) was subsequently examined to determine whether it prevented the depression in isometric tension observed in the in vitro preparation (16,17).
In one set of experiments, it was determined whether TAC prevented the reduction in tension observed with Lzm-S. A dose of 10^−3M TAC (based on preliminary experiments) was added to the organ bath before the addition of Lzm-S. Lzm-S was then added to bring the final concentrations to 10^−10M, 10^−9M, 10^−8M, and 10^−7M in sequential steps. In a related set of experiments, the effect of TAC was studied under a similar protocol in which the ventricular trabecular preparation was paced at 1 Hz instead of 0.5 Hz. The objective was to determine whether the higher frequency altered the inhibitory response of TAC. In a third set of experiments, the sequence of adding TAC and Lzm-S was reversed. Lzm-S (10^−7M) was initially added to the preparation, after which TAC at bath concentrations of 10^−6M, 10^−5M, 10^−4M, 10^−3M were sequentially added. The objective was to determine whether TAC could attenuate the effect of Lzm-S on reducing the isometric response after an initial depression in isometric tension had already been attained.
The right ventricular (RV) preparation used in this study has also been described (49,6). Briefly, mongrel dogs (3 to 10 kg) were anesthetized with pentobarbital. The hearts were removed, flushed with 50 ml of Krebs-Henseleit solution (KH), and placed in ice-cold KH bubbled with a mixture of 95% O2 and 5% CO2. Three to four thin trabeculae (<1 mm diameter) were obtained from the right ventricle and were tied at each end with 6-O silk thread. Each thin muscle was suspended in a vertical constant temperature bath (5 ml) that contained KH (in mM: NaCl, 118; KCl, 4.7; CaCl2 2.5; MgSO4, 1.2; KH2PO4, 1.4; NaHCO3, 25; and dextrose, 11). The muscle was stimulated electrically via punctate platinum bipolar electrodes with rectangular pulses (1 ms duration) at an intensity of 50% above threshold delivered at intervals of 2,000 ms. The trabeculae were stretched to optimal length.
Inhibitory activities of N-acetylglucosamine (NAG), N,N′ diacetylglucosamine (NAG-NAG: N,N′ diacetylchitobiose), and N,N′,N″,N′″ tetraacetylglucosamine (NAG-NAG-NAG-NAG: N,N′,N″,N′″-tetraacetylchitotetraose) were examined (Sigma Corp Canada, Oakville Ontario). These are structurally similar to TAC, but have a different number of NAG units (17). Two somewhat related sugars were also examined to see if there was potential for blocking the activity of lysozyme. These included D-cellotriose and N-aceytllactosamine. D-cellotriose includes three glucose residues linked by beta (1-4) glycosidic linkages, while N acetyllactosamine includes N-acetylglucosamine and galactose residues linked by beta (1-4) glycosidic linkages (12).
After baseline tension was determined, either the sugar or placebo was placed into respective organ baths. The concentration of the sugar used was 10^−3M based on the inventors' previous experiments with TAC 49), while the concentrations of lysozyme were 10^−9, 10^−8, and 10^−7M, respectively. Measurements were obtained at 5 minute intervals. The changes in isometric tension measured from baseline were compared between the treated and placebo baths. […]

lysozyme c (Lzm-S) [3] = biological target: T1, lysozyme c (Lzm-S); assay: as above; conditions: Lzm-S 10^−7M first, then inhibitor 10^−3M at 15 min intervals (Example 4)

Structure (SMILES): CC(=O)N[C@H]1[C@H](O[C@H]2[C@H](O)[C@@H](NC(C)=O)C(O)O[C@@H]2CO)O[C@H](CO)[C@@H](O[C@@H]2O[C@H](CO)[C@@H](O)[C@H](O)[C@H]2NC(C)=O)[C@@H]1O (stereo partly drawn) [TAC, N,N′,N″ triacetylglucosamine]
- Effect of the substance by itself on isometric tension [1]: no effect on isometric tension; also recorded: modest depressant effect
- Attenuation of the reduction in isometric tension, inhibitor added after Lzm-S (lysozyme c (Lzm-S) [2]): treatment attenuated the reduction in isometric tension; also recorded: attenuated the decrease in isometric tension as compared to when no intervention was instituted
- Isometric tension following pre-treatment with sugar (lysozyme c (Lzm-S) [2]): approximately 77 % of baseline
- Attenuation of Lzm-S's depressant activity at higher pacing rate (lysozyme c (Lzm-S) [2]; TAC 10^−3M before Lzm-S, paced 1 Hz): still observed at this higher heart rate
- Inhibition of Lzm-S's depressant effect on isometric tension (lysozyme c (Lzm-S) [2]): significantly less than that found in the nontreated group
- Isometric tension, inhibitor added after myocardial depression had already been produced by lysozyme (lysozyme c (Lzm-S) [3]): 55 % of baseline

Structure (SMILES): CC(=O)N[C@H]1[C@H](O[C@H]2[C@H](O)[C@@H](NC(C)=O)C(O)O[C@@H]2CO)O[C@H](CO)[C@@H](O)[C@@H]1O (stereo partly drawn) [chitobiose, N,N′ diacetylglucosamine]
- Effect of the substance by itself on isometric tension [1]: modest depressant effect
- Attenuation of the reduction in isometric tension, inhibitor added after Lzm-S (lysozyme c (Lzm-S) [2]): attenuated the decrease in isometric tension as compared to when no intervention was instituted
- Isometric tension following pre-treatment with sugar (lysozyme c (Lzm-S) [2]): approximately 90 % of baseline
- Inhibition of Lzm-S's depressant effect on isometric tension (lysozyme c (Lzm-S) [2]; listed as N,N′ diacetylchitobiose): completely blocked lysozyme's depressant activity
- Inhibition of Lzm-S's depressant effect on isometric tension (lysozyme c (Lzm-S) [2]; listed as diacetylchitobiose): inhibited the depressant effect of Lzm-S
- Isometric tension, inhibitor added after myocardial depression had already been produced by lysozyme (lysozyme c (Lzm-S) [3]): 65 % of baseline
